Converted amounts (≈) assume the structure as drawn. Like-named read-outs stand apart in the source and are kept apart here. Peptide text beside a SMILES is read from it.
How the values were obtained:
[1] = test system: Enterococcus faecium isolates (n = 104); assay: microbe, parasite or virus in culture
Procedure: (§1) Comparator antibiotics were supplied by Micromyx, and stock solutions were prepared on the first day of testing using solvents recommended by CLSI (1). Stock solutions of all compounds were made at 40× the final testing concentration and stored at −80° C. prior to testing. Information regarding compound source, catalog and lot number, testing concentrations and drug diluent for the comparators and test agent are detailed below in Table 3.
The test organisms evaluated in this study consisted of clinical isolates from the Micromyx Repository and reference isolates from the American Type Culture Collection (ATCC; Manassas, VA). The clinical isolates were obtained from USA hospitals. Upon initial receipt at Micromyx, the organisms were sub-cultured onto an appropriate agar medium. Following incubation, colonies were harvested from these plates and cell suspensions prepared and frozen at −80° C. with a cryoprotectant. […] Plates were incubated at 35° C. overnight.
MIC values were determined using a broth microdilution procedure described by CLSI (1, 3).
(§2) The test articles and comparator compounds (300 μl at 40× the highest concentration to be tested) were dispensed into the appropriate wells in column 1. The Biomek 2000 was then used to make 2-fold serial dilutions in the mother plates from column 1 through column 11. The wells of Column 12 contained no drug and served as the organism growth control wells for the assay.
(§3) The daughter plates were completed on the Biomek FX instrument which transferred 5 μL of drug solution from each well of a mother plate to the corresponding well of each daughter plate in a single step. A standardized inoculum of each test organism was prepared per CLSI methods (1). The inoculum for each organism was dispensed into sterile reservoirs divided by length (Beckman Coulter), and the Biomek 2000 was used to inoculate the plates. Daughter plates were placed on the Biomek 2000 work surface in reverse orientation so that inoculation took place from low to high drug concentration.
(§4) Plates were stacked 3-4 high, covered with a lid on the top plate, placed in plastic bags, and incubated at 35° C. for 16 to 20 hrs. Following incubation, the microplates were removed from the incubator and viewed from the bottom using a plate viewer. […] The MIC was read and recorded as the lowest concentration of drug that inhibited visible growth of the organism.
(§5) Clinical breakpoints to determine percent resistance within a given organism group were obtained from CLSI (3), with the exception of colistin for K. pneumoniae, Enterobacter spp., and E. coli, which are only available from EUCAST.

[2] = test system: Enterobacter spp. isolates (Enterobacter aerogenes and E. cloacae, n = 102); assay: organism not typed
Procedure: as §1
(§6) The test organisms evaluated in this study consisted of clinical isolates from the Micromyx Repository and reference isolates from the American Type Culture Collection (ATCC; Manassas, VA). The clinical isolates were obtained from USA hospitals. Upon initial receipt at Micromyx, the organisms were sub-cultured onto an appropriate agar medium. Following incubation, colonies were harvested from these plates and cell suspensions prepared and frozen at −80° C. with a cryoprotectant. Prior to testing, the isolates were streaked from frozen vials onto Trypticase Soy Agar with 5% sheep blood (Becton Dickenson [BD]; Sparks, MD; Lot Nos. 7173618, 7166759, 7208688, 72144895, 7228505 and Remel Lenexa, KS Lot No. 212574). Plates were incubated at 35° C. overnight.
(§7) Mueller Hinton II broth (MHB II; BD; Lot Nos. 6258541 and 7143896) was used for MIC testing of aerobic organisms.
(§8) MIC values were determined using a broth microdilution procedure described by CLSI (1, 3). Automated liquid handlers (Multidrop 384, Labsystems, Helsinki, Finland; Biomek 2000 and Biomek FX, Beckman Coulter, Fullerton CA) were used to conduct serial dilutions and liquid transfers.
as §2, with “To prepare the drug mother plates, which would provide the serial drug dilutions for the replicate daughter plates, the wells of columns 2-12 of standard 96-well microdilution plates (Costar 3795) were filled with 150 μl of the designated diluent for each row of drug. The test” for “The test”
as §3, with “The daughter plates were loaded with 185 μL per well of MHB II using the Multidrop 384. The daughter” for “The daughter”
as §4, §5

[3] = test system: Klebsiella pneumoniae isolates (n = 101)
Procedure: as §1, §6, §7, §8
as §2, with “To prepare the drug mother plates, which would provide the serial drug dilutions for the replicate daughter plates, the wells of columns 2-12 of standard 96-well microdilution plates (Costar 3795) were filled with 150 μl of the designated diluent for each row of drug. The test” for “The test”
as §3, with “The daughter plates were loaded with 185 μL per well of MHB II using the Multidrop 384. The daughter” for “The daughter”
as §4, §5

[4] = test system: Acinetobacter spp. isolates (n = 104)
Procedure: as §1, §6, §7, §8
as §2, with “To prepare the drug mother plates, which would provide the serial drug dilutions for the replicate daughter plates, the wells of columns 2-12 of standard 96-well microdilution plates (Costar 3795) were filled with 150 μl of the designated diluent for each row of drug. The test” for “The test”
as §3, with “The daughter plates were loaded with 185 μL per well of MHB II using the Multidrop 384. The daughter” for “The daughter”
as §4, §5

[5] = test system: Escherichia coli isolates (n = 101)
Procedure: as §1, §6, §7, §8
as §2, with “To prepare the drug mother plates, which would provide the serial drug dilutions for the replicate daughter plates, the wells of columns 2-12 of standard 96-well microdilution plates (Costar 3795) were filled with 150 μl of the designated diluent for each row of drug. The test” for “The test”
as §3, with “The daughter plates were loaded with 185 μL per well of MHB II using the Multidrop 384. The daughter” for “The daughter”
as §4, §5

[6] = test system: Pseudomonas aeruginosa isolates (n = 109)
Procedure: as §1, §6, §7, §8
as §2, with “To prepare the drug mother plates, which would provide the serial drug dilutions for the replicate daughter plates, the wells of columns 2-12 of standard 96-well microdilution plates (Costar 3795) were filled with 150 μl of the designated diluent for each row of drug. The test” for “The test”
as §3, with “The daughter plates were loaded with 185 μL per well of MHB II using the Multidrop 384. The daughter” for “The daughter”
as §4, §5

[7] = test system: Escherichia coli ATCC 25922 (QC); conditions: E. coli ATCC 25922; established CLSI QC range; cited from earlier work
[8] = IV infusion 1 mg/kg, Group 1, mean of rats
[9] = IV infusion 5 mg/kg, Group 2, mean of rats
[10] = IV infusion 10 mg/kg, Group 4, mean of rats
[11] = Pseudomonas aeruginosa (n = 109)
[12] = Klebsiella pneumoniae (n = 101)

For `CC(C)[C@H](NC(=O)[C@H](Cc1c[nH]c2ccccc12)NC(=O)[C@H](CCCNC(=N)N)NC(=O)[C@H](CCCNC(=N)N)NC(=O)[C@@H](NC(=O)[C@@H](NC(=O)[C@H](CCCNC(=N)N)NC(=O)[C@@H](NC(=O)[C@@H](NC(=O)[C@H](CCCNC(=N)N)NC(=O)[C@H](CCCNC(=N)N)NC(=O)[C@H](Cc1c[nH]c2ccccc12)NC(=O)[C@@H](NC(=O)[C@H](CCCNC(=N)N)NC(=O)[C@H](CCCNC(=N)N)NC(=O)[C@@H](NC(=O)[C@H](CCCNC(=N)N)NC(=O)[C@H](CCCNC(=N)N)NC(=O)[C@@H](NC(=O)[C@H](Cc1c[nH]c2ccccc12)NC(=O)[C@H](CCCNC(=N)N)NC(=O)[C@@H](N)CCCNC(=N)N)C(C)C)C(C)C)C(C)C)C(C)C)C(C)C)C(C)C)C(C)C)C(=O)N[C@@H](CCCNC(=N)N)C(=O)N[C@@H](CCCNC(=N)N)C(N)=O` [SEQ ID NO: 1] (H-RRWVRRVRRVWRRVVRVVRRWVRR-NH2), the MIC50 ([1]; Enterococcus faecium (n = 104)) was 1 µg/mL (≈ 0.294 µM), the MIC90 ([1]; Enterococcus faecium (n = 104)) was 2 µg/mL (≈ 0.588 µM) and the “Mode (MIC)” value ([1]; Enterococcus faecium (n = 104)) was 1 µg/mL. For the same molecule, the MIC50 ([1]; isolates (n = 104)) was 0.5 µg/mL (≈ 0.147 µM), the MIC90 ([1]; isolates (n = 104)) was 1 µg/mL (≈ 0.294 µM) and the MIC range ([1]; isolates (n = 104)) was 0.25 to 2 µg/mL. For the same molecule, the “Mode (MIC)” value [2] was 16 µg/mL, the AUCinf_D [8] was 787 kg·ng·h/mL/ng and the CL [8] was 21.87 mL/min/kg. It also gave an Extrapolated [8] of 3.28%, a Vss [8] of 3.401 L/kg and a Vz [8] of 10.884 L/kg. The AUCinf_D [9] was 5158 kg·ng·h/mL/ng, the Extrapolated [9] was 0.424% and the Vss [9] was 0.229 L/kg. It also gave a Vz [9] of 1.533 L/kg, an AUCinf_D [10] of 8049 kg·ng·h/mL/ng and a CL [10] of 2.12 mL/min/kg. It also gave an Extrapolated [10] of 0.186%, a Vz [10] of 0.749 L/kg and an MIC90 ([3]; K. pneumoniae colistin-resistant, n=28) of 16 µg/mL (≈ 4.71 µM). For the same molecule, the “Mode (MIC)” value [4] was 4 µg/mL, the MIC90 ([4]; Acinetobacter colistin-resistant, n=21) was 16 µg/mL (≈ 4.71 µM) and the MIC90 ([4]; Acinetobacter spp. (n = 104)) was 16 µg/mL (≈ 4.71 µM). For the same molecule, the “Mode (MIC)” value ([5]; isolates (n = 101)) was 2 µg/mL, the MIC90 ([6]; P. aeruginosa colistin-resistant, n=8) was 16 µg/mL (≈ 4.71 µM) and the MIC90 [6, 11] was 16 µg/mL (≈ 4.71 µM).
For Colistin [reference compound], the “MIC QC range (in parentheses under the MIC)” value [7] is listed as “(0.25-2) μg/mL”, the MIC50 ([2]; Enterobacter spp. (n = 102)) is listed as 0.12 µg/mL and the MIC90 ([2]; Enterobacter spp. (n = 102)) is listed as 0.25 µg/mL. For the same molecule, the “Mode (MIC)” value ([2]; Enterobacter spp. (n = 102)) was 0.12 µg/mL, the “% R (percent of isolates resistant)” value ([2]; Enterobacter spp. (n = 102), CLSI breakpoints, colistin EUCAST) was 5.8% and the MIC50 [3, 12] was 0.12 µg/mL. For the same molecule, the MIC90 [3, 12] was 32 µg/mL, the “Mode (MIC)” value [3, 12] was 0.12 µg/mL and the “% R (percent of isolates resistant)” value ([3]; Klebsiella pneumoniae (n = 101), CLSI breakpoints, colistin EUCAST) was 27.7%. For the same molecule, the MIC50 ([4]; Acinetobacter spp. (n = 104)) was 0.25 µg/mL, the MIC90 ([4]; Acinetobacter spp. (n = 104)) was greater than 32 µg/mL and the “Mode (MIC)” value ([4]; Acinetobacter spp. (n = 104)) was 0.25 µg/mL. The “% R (percent of isolates resistant)” value ([4]; Acinetobacter spp. (n = 104), CLSI breakpoints) was 20.2%, the MIC50 ([5]; Escherichia coli (n = 101)) was 0.12 µg/mL and the MIC90 ([5]; Escherichia coli (n = 101)) was 0.12 µg/mL. The MIC range ([5]; Escherichia coli (n = 101)) was ≤0.03-0.5 ^ μg/mL, the “Mode (MIC)” value ([5]; Escherichia coli (n = 101)) was 0.12 µg/mL and the “% R (percent of isolates resistant)” value ([5]; Escherichia coli (n = 101), CLSI breakpoints, colistin EUCAST) was 0%. The MIC50 [6, 11] was 0.5 µg/mL, the MIC90 [6, 11] was 1 µg/mL and the “Mode (MIC)” value [6, 11] was 0.5 µg/mL. The “% R (percent of isolates resistant)” value ([6]; Pseudomonas aeruginosa (n = 109), CLSI breakpoints) was 7.3%.
